# Data reported in patent US12577201B2, “Glutamine analogs” (Jacobio Pharmaceuticals Co., Ltd., priority 2020, dated 2026).
# Experiments:
# [1] = Body weight of CES1c -/- mice bearing MC38 tumors (Example 10); format: in vivo; details: CES1c -/- mouse, MC38, 2 μmol/kg S.C. QD; for BW Change (%): D6 to D26
# Description: The treatments were started when the mean tumor size reached 52-132 mm^3 (average tumor size 95 mm^3). Each group contained 5 tumor bearing mice. Group 1 was treated with Vehicle (10% DMSO+90% Saline), S.C., QD(Subcutaneous injection, quaque die). Group 2 was given treatments with reference compound A at 2 μmol/kg, S.C., QD. Group 3 was given treatments with compound 2 at 2 μmol/kg, S.C., QD.
# (§1) In vivo efficacy was examined according to absolute tumor growth inhibition (TGI) and the safety was evaluated according to weight change and survival in mice.
# [2] = Stability in liver microsomes, human; format: in vitro ADME; details: 60 minutes, read-out: In vitro Clint
# Description: (§2) For metabolic stability, microsomes from human, monkey, dog, rat and mouse were used. For stability, prodrugs (1 μM) were spiked in each microsomes matrix and incubated in an orbital shaker at 37° C. Aliquots of 50 μL were taken from the reaction solution at 0, 15, 30, 45 and 60 min. The reaction was stopped by the addition of 4 volumes of cold acetonitrile with IS (100 nM alprazolam, 200 nM labetalol, 200 nM caffeine and 2 μM ketoprofen). Samples were centrifuged at 3, 220 g for 40 minutes. Aliquot of 100 μL of the supernatant was mixed with 100 μL of ultra-pure H2O and then used for LC-MS/MS analysis.
# (§3) For LC-MS/MS, prodrugs were analyzed on an API 4000 instrument from AB Inc (Canada) with an ESI interface coupled to Shimadzu LC system on an Waters XSelect HSS T3 C18, 2.5 m, 2.1×30 mm column.
# (§4) For data analysis, peak areas were determined from extracted ion chromatograms. The slope value, k, was determined by linear regression of the natural logarithm of the remaining percentage of the parent drug vs. incubation time curve. The in vitro half-life (in vitro t1/2) was determined from the slope value: in vitro t1/2=−(0.693/k)
# (§5) Conversion of the in vitro t1/2 (min) into the in vitro intrinsic clearance (in vitro CLint, in μL/min/mg protein) was done using the following equation (mean of duplicate determinations): […]
# [3] = Stability in liver microsomes, monkey; format: in vitro ADME; details: 60 minutes, read-out: In vitro Clint
# Description: as §2, §3, §4, §5
# [4] = Stability in liver microsomes, dog; format: in vitro ADME; details: 60 minutes, read-out: In vitro Clint
# Description: as §2, §3, §4, §5
# [5] = Plasma stability, human plasma; details: 1 μM, 37° C., 4 hours
# Description: (§6) For metabolic stability, plasma from dog, monkey, swine and human were used. For stability, prodrugs (1 μM) were spiked in respective solutions and incubated in an orbital shaker at 37° C. 50 μL aliquots of the mixture in duplicate were removed, and the reaction quenched by addition of four times the volume of ice cold acetonitrile spiked with the internal standard (Dexamethasone 100 ng/mL). […] 100 μL of the supernatant was diluted with 100 μL of water and transferred to the 0.6 mL plastic tubes on 96-well plate. Prodrug disappearance was monitored over time using a liquid chromatography and tandem mass spectrometry (LC-MS/MS).
# (§7) For LC-MS/MS, prodrugs were analyzed on a ExionLC AD HPLC system coupled to REF Triple Quad 5500+ mass spectrometer with an ESI interface on an Phenomenex Kinetex 5 m C18 100A (2.1*50) mm UPLC column. The autosampler was temperature controlled and was operated at 4° C. The mobile phase used for the chromatographic separation was composed of acetonitrile/water containing 0.10% formic acid and will run at a flow rate of 0.6 mL/min for 3.5 min using gradient elution. The column effluent was monitored using […], equipped with an electrospray probe set in the positive ionization mode. Samples were introduced into the ionization source through a heated nebulized probe (400° C.). Disappearance of prodrugs will be measured from ratio of peak areas of analyte to IS.
# (§8) For quantification of compound remaining, disappearance of prodrugs was measured from ratio of peak areas of analyte to IS.
# [6] = Plasma stability, swine plasma; details: 1 μM, 37° C., 4 hours
# Description: as §6, §7, §8
# MC38 tumor cells [7] = assay: Anti-tumor efficacy in MC38 model in CES1c -/- mouse (Example 10); format: in vivo; details: for TV (mm^3) (Mean ± SEM) D6 / TV (mm^3) (Mean ± SEM) D9 / TV (mm^3) (Mean ± SEM) D12 / TV (mm^3) (Mean ± SEM) D15 / TV (mm^3) (Mean ± SEM) D20 / TV (mm^3) (Mean ± SEM) D23 / T/C (%) / TGI (%) / TV (mm^3) (Mean ± SEM) D26: MC38, 2 μmol/kg S.C. QD; for T/C (%) / TGI (%) / TV (mm^3) (Mean ± SEM) D26 / TV (mm^3) at D26 (Mean ± SEM): D26; for TV (mm^3) at D26 (Mean ± SEM): Table 9, MC38, 2 μmol/kg S.C. QD
# Description: Animal species: Mus musculus; Strain: C57BL/6-Ces1c^emISmoc; Age: 6-8 weeks; Sex: female. (Shanghai Model Organisms). The MC38 tumor cells were maintained in vitro in DMEM medium supplemented with 10% FBS at 37° C., 5% CO2. The cells growing in an exponential growth phase were harvested and counted for tumor inoculation. The culture MC38 were harvested, re-suspended in PBS containing 50% Matrigel at a density of 1×10^7 cells/mL. Each mouse was inoculated subcutaneously in the right flank region with 1×10^6 in 0.1 mL of PBS containing 50% Matrigel for tumor development.
# The treatments were started when the mean tumor size reached 52-132 mm^3 (average tumor size 95 mm^3). Each group contained 5 tumor bearing mice. Group 1 was treated with Vehicle (10% DMSO+90% Saline), S.C., QD(Subcutaneous injection, quaque die).
# as §1
# (§9) Statistical analysis of difference in tumor volume among the groups was performed using one-way ANOVA followed by individual comparisons using Games-Howell post-hoc test (equal variance not assumed). All data was analyzed using SPSS 22.0 software.
# MC38 tumor cells [8] = assay: Anti-tumor efficacy in MC38 syngeneics in C57BL/6 mouse (Example 9); format: in vivo; details: C57BL/6, MC38, 2 μmol/kg S.C. QD; for T/C (%) / TGI (%) / TV (mm^3) (Mean ± SEM) D21 / TV (mm^3) at D21 (Mean ± SEM): D21; for TV (mm^3) at D21 (Mean ± SEM): Table 5
# Description: Animal species: Mus musculus; Strain: C57BL/6; Age: 6-8 weeks; Sex: female.
# The MC38 tumor cells were maintained in vitro in DMEM medium supplemented with 10% FBS at 37° C., 5% CO2. The cells growing in an exponential growth phase were harvested and counted for tumor inoculation. The culture MC38 were harvested, re-suspended in PBS containing 50% Matrigel at a density of 1×10^7 cells/mL. Each mouse was inoculated subcutaneously in the right flank region with 1×10^6 cells in 0.1 mL of PBS containing 50% Matrigel for tumor development.
# The treatments were started when the mean tumor size reached 79-118 mm^3 (average tumor size 96 mm^3). Each group contained 8 tumor bearing mice. Group 1 was treated with Vehicle (10% DMSO+90% Saline), S.C., QD.
# as §1, §9
SMILES,tolerability / body weight loss [1],BW(g) (Mean ± SEM) Beginning (D6) [1],BW Change (%) [1],BW(g) (Mean ± SEM) End (D26) [1],microsomal CLint at 1 μM [2] [µL/min/mg],microsomal CLint at 1 μM [3] [µL/min/mg],microsomal CLint at 1 μM [4] [µL/min/mg],plasma stability (compound remaining) [5],plasma stability (compound remaining) [6],TV (mm^3) (Mean ± SEM) D6 (MC38 tumor cells [7]),TV (mm^3) (Mean ± SEM) D9 (MC38 tumor cells [7]),TV (mm^3) (Mean ± SEM) D12 (MC38 tumor cells [7]),TV (mm^3) (Mean ± SEM) D15 (MC38 tumor cells [7]),TV (mm^3) (Mean ± SEM) D20 (MC38 tumor cells [7]),TV (mm^3) (Mean ± SEM) D23 (MC38 tumor cells [7]),T/C (%) (MC38 tumor cells [7]),TGI (%) (MC38 tumor cells [7]),TV (mm^3) (Mean ± SEM) D26 (MC38 tumor cells [7]),TV (mm^3) at D26 (Mean ± SEM) (MC38 tumor cells [7]) [mm^3],TV (mm^3) (Mean ± SEM) D6 (MC38 tumor cells [8]),also measured
"CC(=O)N[C@@H](Cc1c[nH]c2ccccc12)C(=O)N[C@@H](CCC(=O)C=[N+]=[N-])C(=O)OC(C)C [Reference compound A, reference compound]",some body weight loss,19.2 ± 0.2,−8.3%,17.6 ± 0.9,119,393,60.4,substantially intact,substantially intact,95 ± 6,275 ± 33,147 ± 5,195 ± 23,196 ± 33,183 ± 33,12.3,87.7,274 ± 81,274 ± 81,96 ± 4,TV (mm^3) (Mean ± SEM) D10 (MC38 tumor cells [8]): 148 ± 6 mm^3; TV (mm^3) (Mean ± SEM) D14 (MC38 tumor cells [8]): 196 ± 25 mm^3; TV (mm^3) (Mean ± SEM) D18 (MC38 tumor cells [8]): 297 ± 48 mm^3; T/C (%) (MC38 tumor cells [8]): 14.4%; TGI (%) (MC38 tumor cells [8]): 85.6%; TV (mm^3) (Mean ± SEM) D21 (MC38 tumor cells [8]): 399 ± 74 mm^3; TV (mm^3) (Mean ± SEM) D25 (MC38 tumor cells [8]): 680 ± 143 mm^3; TV (mm^3) (Mean ± SEM) D28 (MC38 tumor cells [8]): 928 ± 153 mm^3; TV (mm^3) (Mean ± SEM) D31 (MC38 tumor cells [8]): 1358 ± 213 mm^3; TV (mm^3) at D21 (Mean ± SEM) (MC38 tumor cells [8]): 399 ± 74 mm^3
"CO[C@@H](C)C(=O)N[C@@H](CCC(=O)C=[N+]=[N-])C(=O)OC(C)C [Compound 2, isopropyl (S)-6-diazo-2-((S)-2-methoxypropanamido)-5-oxohexanoate]",well-tolerated,19.1 ± 0.3,+2.4%,19.5 ± 0.3,43.4,31.8,12.7,substantially intact,substantially intact,95 ± 11,193 ± 20,103 ± 15,131 ± 21,169 ± 19,219 ± 21,14.0,86.0,313 ± 35,313 ± 35,96 ± 4,TV (mm^3) (Mean ± SEM) D10 (MC38 tumor cells [8]): 141 ± 9 mm^3; TV (mm^3) (Mean ± SEM) D14 (MC38 tumor cells [8]): 140 ± 10 mm^3; TV (mm^3) (Mean ± SEM) D18 (MC38 tumor cells [8]): 180 ± 13 mm^3; T/C (%) (MC38 tumor cells [8]): 9.5%; TGI (%) (MC38 tumor cells [8]): 90.5%; TV (mm^3) (Mean ± SEM) D21 (MC38 tumor cells [8]): 263 ± 32 mm^3; TV (mm^3) (Mean ± SEM) D25 (MC38 tumor cells [8]): 381 ± 55 mm^3; TV (mm^3) (Mean ± SEM) D28 (MC38 tumor cells [8]): 496 ± 62 mm^3; TV (mm^3) (Mean ± SEM) D31 (MC38 tumor cells [8]): 617 ± 56 mm^3; TV (mm^3) at D21 (Mean ± SEM) (MC38 tumor cells [8]): 263 ± 32 mm^3
